Test [1] concerns the target T1, elastase (from human leukocytes) (Homo sapiens, UniProt P08246).
T1 construct: elastase (from human leukocytes; Sigma E8140; 100 mU/well); purchased Sigma E8140; host or cells: human leukocytes
T1 sequence (P08246 30-267): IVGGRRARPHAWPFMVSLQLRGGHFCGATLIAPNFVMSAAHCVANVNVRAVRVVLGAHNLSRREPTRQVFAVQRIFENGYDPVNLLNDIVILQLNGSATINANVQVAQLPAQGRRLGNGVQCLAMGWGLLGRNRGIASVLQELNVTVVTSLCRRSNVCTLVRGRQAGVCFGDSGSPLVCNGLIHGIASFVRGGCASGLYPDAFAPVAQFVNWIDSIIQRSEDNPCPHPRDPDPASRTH
Briefly: Action on the activity of leukocyte elastase (fluorescence, elastin substrate). It is filed as biochemical. The method, then:
5,7-Dihydroxy-2-methylchromen-4-one in TRIS buffer (500 mM) is incubated for 10 minutes on ice with elastase (from human leukocytes; Sigma E8140; 100 mU/well). 5 μg/well of elastin are subsequently added, and the plates are incubated at 37° C. for 2 hours. The fluorescence is determined using a Spectromax Gemini spectrometer (Molecular Devices) at λex=485 nm and λem=538 nm.

Test [2] has as its system PGE2 release from human keratinocytes (cell line NCTC R13). As to the kind of experiment: Antiinflammatory properties (PGE2 assay): PMA-induced PGE2 release, ELISA. The conditions noted are these: for PGE2: PMA-stimulated, 24 h; for PGE2 release % compared with control: control (only PMA) = 100. In kind it is cell-based. The method, then:
Human keratinocytes of the cell line NCTC R13 are pre-cultivated for 24 hours at 37° C. in a 5% CO2 atmosphere with DMEM culture medium (Life Technologies). The cells are treated with LU for 24 hours, and the culture medium is then removed. A fresh culture medium containing the inflammation-triggering active ingredient phorbol myristate acetate (PMA; […]) and LU is added. After incubation for 24 hours, the culture medium is collected and analysed. By means of an ELISA DE0100 kit (R&D Systems), the release is used in order to investigate the release of the inflammation marker prostaglandin E2 (PGE2) (Table).
Background: ELISA stands for enzyme-linked immunosorbent assay.

Test [3] concerns the target T2, hyaluronidase (HYAL, Sigma type IV-S, H3884) (Bos taurus, UniProt Q2YDK3).
T2 construct: hyaluronidase (HYAL, Sigma type IV-S, H3884)
T2 sequence (Q2YDK3 1-553): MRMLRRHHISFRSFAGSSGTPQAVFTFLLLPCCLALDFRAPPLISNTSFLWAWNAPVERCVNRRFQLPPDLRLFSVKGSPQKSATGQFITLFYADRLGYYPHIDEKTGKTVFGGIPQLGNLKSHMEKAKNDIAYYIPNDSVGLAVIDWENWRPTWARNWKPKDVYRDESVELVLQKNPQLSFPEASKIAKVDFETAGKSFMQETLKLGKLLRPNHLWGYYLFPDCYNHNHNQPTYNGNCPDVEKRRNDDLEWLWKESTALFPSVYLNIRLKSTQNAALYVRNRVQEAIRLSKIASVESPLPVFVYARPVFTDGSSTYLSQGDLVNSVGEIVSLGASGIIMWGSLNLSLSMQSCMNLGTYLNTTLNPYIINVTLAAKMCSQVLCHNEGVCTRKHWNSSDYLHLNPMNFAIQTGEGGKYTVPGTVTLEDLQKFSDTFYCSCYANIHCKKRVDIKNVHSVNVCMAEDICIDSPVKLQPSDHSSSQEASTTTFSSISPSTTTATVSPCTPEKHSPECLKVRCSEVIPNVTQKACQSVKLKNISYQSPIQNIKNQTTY
As to the kind of experiment: Action on the activity of hyaluronidase (remaining hyaluronic acid determined photometrically). The conditions noted are these: for Hyaluronidase activity: control (no LU) = 100. It is filed as biochemical. How it is done:
5,7-Dihydroxy-2-methylchromen-4-one in phosphate buffer (0.1 M) is pre-incubated with hyaluronidase (HYAL, Sigma type IV-S, H3884; 1 mg/l in phosphate buffer (0.1 M)). Hyaluronic acid (HA, Sigma H-1876; 1.2 mg/ml) is subsequently added, and the mixture is incubated at 37° C. for 1 hour. The remaining hyaluronic acid (HA) is subsequently precipitated using serum albumen (BSA, Sigma A7888) and determined photometrically.

For test [4] the following is noted: over the entire pH range; cited from earlier work.
The next test deals with keratinocyte cultures. As to conditions: cited from earlier work.

One may read the inhibition as the share of the control response that was lost under treatment. High values mean a strong effect, low ones a weak effect. For the compound `Cc1cc(=O)c2c(O)cc(O)cc2o1` [LU, 5,7-dihydroxy-2-methylchromen-4-one], in test [1] (40 μM LU), the “% quenching” value is reported as 0%, the Fluorescence intensity is recorded as 2195.9 and the inhibition at 40 µM worked out at 10%. For the same compound, the remaining activity at 40 µM in test [1] (40 μM LU, neg. control = 100, read-out: Elastase activity % compared with control) came out at 90%. Moreover, in test [1] (200 μM LU), the “% quenching” value is 19%, the Fluorescence intensity is reported as 1096.4 and 200 µM produced 45% inhibition. Moreover, the remaining activity at 200 µM in test [1] (200 μM LU, neg. control = 100, read-out: Elastase activity % compared with control) stood at 45%. Moreover, the “Inhibition of the elastase activity (in words)” value in test [1] (doses of 200 μM and 40 μM) is reported as “clear inhibition of the elastase activity”. Moreover, in test [2] (0.008 mM LU), the “PGE2” value is 340.62 ng/mL and the “PGE2 release % compared with control” value amounted to 113%. Further, in test [2] (0.04 mM LU), the “PGE2” value came to 226.39 ng/mL and the “PGE2 release % compared with control” value is reported as 75%. Moreover, in test [2] (0.2 mM LU), the “PGE2” value stood at 6.31 ng/mL and the “PGE2 release % compared with control” value was found to be 2%. In addition, the “PGE2 release on exposure to PMA (in words)” value in test [2] (doses of 0.2 mM and 0.04 mM) is “clear reduction in PGE2 release”. Besides, in test [3] (3.125 mM LU), the inhibition at 3125 µM was determined as 9% and the Hyaluronidase activity is reported as 91. In test [3] (6.25 mM LU), this compound registered an inhibition at 6250 µM of 19% and a Hyaluronidase activity of 81. For the same compound, in test [3] (12.5 mM LU), the inhibition at 12500 µM came to 37% and the Hyaluronidase activity is reported as 63. In test [3] (25 mM LU), this compound registered an inhibition at 25000 µM of 63% and a Hyaluronidase activity of 37. The “Inhibition of hyaluronidase activity (in words)” value in test [3] (in the doses investigated (3.125-25 mM)) was “clear inhibition of hyaluronidase activity”.
With `O=c1c(O)c(-c2ccc(O)c(O)c2)oc2cc(O)cc(O)c12` [Quercetin, 3,3′,4′,5,7-pentahydroxyflavone], the antioxidant activity result in test [4] is listed as “greatest activity amongst the structures investigated”.
In the case of `O=C1CCOc2ccccc21` [Example 4-chromanone, 4-chromanone], in the test on keratinocyte cultures, the cell differentiation result is “promotes cell differentiation” and the lipid production entry is “stimulates lipid production”.

The values above are taken from patent publication US9044409B2, “Use of chromen-4-one derivatives” (Merck Patent GmbH, priority 2003, dated 2015).
